Tests used:
OVA = target: T1, OVA (Gallus gallus, UniProt P01012); assay: Binding of OPLS to OVA by fluorescence spectroscopy
T1 construct: purchased Sigma (St. Louis, Mo.)
Procedure: The binding of OPLS to several therapeutic proteins was evaluated using fluorescence spectroscopy (FIG. 2).

Humira = assay: Binding of OPLS to Humira
Procedure: The binding of OPLS to several therapeutic proteins was evaluated using fluorescence spectroscopy (FIG. 2). The fluorescence emission reduced as the concentration of OPLS was increased. The fluorescence intensity changes were highest for FVIII compared to GAA and OVA. […] The high affinity binding for FVIII is consistent with the existence of a putative lipid binding domain.
As shown in FIG. 6(d), anti-Humira antibody titers were lower in mice that were co-administered OPLS (5 mg dose) and Humira® ([…]) via the s.c. route than in those administered Humira® alone ([…]) (also via the s.c. route) after 4 weekly injection followed by a 2 weeks washout period. Titer values were obtained by classical sandwitch ELISA were the plates was coated with Humira before incubation with dilutions with plasma samples, anti-Humira antibodies were detected with a rat anti-mouse-HRP conjugated antibodies. […] It is highly doubtful that the weak binding seen here is “shielding” an immunologic epitope.

anti-GAA total titers = assay: OPLS-GAA sequential administration study; format: in vivo, Mice; conditions: for Total titers (ELISA), week 11 after re-challenge: rechallenge 4 weekly 1 μg rhGAA; for Total titers (ELISA), week 6: 4 weekly sc
Procedure: This examples describes OPLS-GAA sequential administration study. To determine if OPLS can exert its immunomodulatory effects on the immune response to GAA when the two are administered in separate spaced injections, at the same injection site the following experiments were carried out. Mice (n=6 animals/group) were immunized with 4 weekly sc injections as follows. One group of animals received one single combined injection of 5 mg OPLS and 1 μg rhGAA(100 μl volume). Recombinant human GAA was produced by Creative Biomart. The second group received one injection of 5 mg OPLS (100 μl volume) then after a 5 minute wait they received a second injection of 1 μg rhGAA in sterile TRIS (100 μl volume) in the same injection site. The final control group received one injection of sterile TRIS (100 μl volume) then after a 5 minute wait they received a second injection of 1 μg rhGAA in sterile TRIS (100 μl volume) in the same injection site. After a two week rest period a saphenous blood sample was collected. All of the mice were then rechallenged with 4 weekly injections of 1 μg of rhGAA in 100 μl sterile TRIS (one single injection). Analysis was done by ELISA for total titers. The mean free GAA after 6 weeks was 3135±910, When co-administered, the GAA was 787±155, and when administered separately (sequentially), the GAA was 926±202 (FIG. 26). After re-challenge, terminal sampling was done at week 11. The mean free GAA after 11 weeks was 8775±2363, When co-administered, the GAA was 895±335, and when administered separately (sequentially), the GAA was 1884±761. […] Either administration method was able to induce a hypo-responsiveness towards GAA.

[1] = system: anti-Humira antibody titers; assay: Effect of OPLS on immunogenicity of adalimumab; format: in vivo, mice; conditions: 5 mg OPLS with Humira s.c., 4 weekly injections, 2 weeks washout
Procedure: Methods: n=8 animals/group were immunized with 4 weekly s.c. injections of 10 μg of adalimumab in 100 μl of either sterile TRIS for the free group or in 5 mg OPLS in sterile TRIS for the OPLS-Adalimumab group. After a 2 week rest period, a blood sample from the saphenous vein was collected for titer analysis. Titer values were obtained by classical sandwitch ELISA. Briefly, Nunc-Maxisorb 96-well plates were coated overnight at 4° C. with 50 μl/well of 2.5 μg/ml Humira. Plates were then washed and blocked with 1% bovine serum albumin (blocking buffer). 50 μl/well of various dilutions of the sample were added to the plate and incubated at room temperature for 2 h. Plasma samples from animals exposes to a sham treatment (buffer only) served as controls. The plates were then washed and incubated with 50 μl of goat anti-mouse anti-body-HRP conjugate at a 1:50000 dilution in blocking buffer at room temperature for 1 h. Color was developed for 20 min with 100 μl of TMB solution. 100 μl of 2 N H2SO4 was used to stop the reaction. Optical density at […] was measured using a plate reader. Non-responders were given the value of the plate specific factor for uniformity.

anti-RXT antibody titers = assay: Effect of OPLS on rituximab immunogenicity; format: in vivo, SW mice; conditions: OPLS 5 mg vs 0.4 mg with 1 μg RXT s.c., dose dependent
Procedure: Materials and Methods: 30 SW mice between 6 and 8 weeks of age were divided into 3 groups: group one received 1 ug RXT SC in the abdominal region. Group two received 1 ug RXT/0.4 mg OPLS SC in the abdominal region and group 3 received 1 μg RXT/5 mg OPLS sc in the abdominal region. This treatment was given one day 1, 8, 10 and 12. Three days after the last injection the animals were sacrificed. Blood was centrifuged at 7500 rpm for 5 min at 4 degrees Celsius. Plasma was then removed and stored at −80 degrees Celsius until analysis Total titers were determined by classical standard ELISA. Briefly, Nunc-Maxisorb 96-well plates were coated overnight at 4° C. with 50 μl/well of 2.5 μg/ml RXT. Plates were then washed and blocked with 1% bovine serum albumin (blocking buffer). 50 μl/well of various dilutions of the sample were added to the plate and incubated at room temperature for 2 h. Plasma samples from animals exposes to a sham treatment (buffer only) served as controls. The plates were then washed and incubated with 50 μl of goat anti-mouse FC-specific anti-body-HRP conjugate at a 1:50000 dilution in blocking buffer at room temperature for 1 h. Color was developed for 20 min with 100 μl of TMB solution. 100 μl of 2 N H2SO4 was used to stop the reaction. Optical density at […] was measured using a plate reader. Non-responders were given the value of the plate specific factor for uniformity. […]

[2] = Plasma chemistry markers after 28 daily injections of OPLS; format: in vivo, CD-1 mice; conditions: up to highest dose, 1 day after dosing
Text: FIG. 21. Effect of 28 daily injections of a range of OPLS doses on plasma chemistry markers of CD-1 mice. Samples were collected from animals 1 day after the termination of dosing.

[3] = Plasma creatine kinase and injection site after 28 daily s.c. injections of OPLS; format: in vivo, CD-1 mice
Text: FIG. 22. Plasma Creatine Kinase (CK: an enzyme with high expression in myocytes, elevation of plasma CK is an indication of damage to muscle tissue) activity levels after 28 daily s.c. injections of OPLS to CD-1 mice.

T1 sequence (P01012 whole entry): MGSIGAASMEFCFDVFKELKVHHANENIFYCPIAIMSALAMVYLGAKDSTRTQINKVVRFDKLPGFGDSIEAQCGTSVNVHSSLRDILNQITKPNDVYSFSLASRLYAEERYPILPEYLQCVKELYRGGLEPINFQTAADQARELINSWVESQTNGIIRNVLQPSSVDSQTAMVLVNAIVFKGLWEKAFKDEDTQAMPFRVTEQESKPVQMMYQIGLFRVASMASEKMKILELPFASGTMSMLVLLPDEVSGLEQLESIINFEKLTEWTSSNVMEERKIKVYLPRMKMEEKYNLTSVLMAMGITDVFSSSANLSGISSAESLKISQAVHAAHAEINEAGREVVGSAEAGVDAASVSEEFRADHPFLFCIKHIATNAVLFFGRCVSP

## N[C@@H](COP(=O)(O)O)C(=O)O [OPLS, O-Phospho-L-Serine]
OVA; fluorescence titration, FIG. 2, read-out: Dissociation constant (Kd) of OPLS binding to OVA
  Kd: 2570 µM
OVA; spectroscopic titration
  Binding affinity of OVA for OPLS: lowest affinity
Humira
  Binding between OPLS and Humira: weak binding
anti-GAA total titers; co-administered with 5 mg OPLS
  Total titers (ELISA), week 11 after re-challenge: 895±335
anti-GAA total titers; co-administered: single combined injection 5 mg OPLS and 1 μg rhGAA
  Total titers (ELISA), week 6: 787±155
anti-GAA total titers; sequential, 5 mg OPLS 5 min before GAA
  Total titers (ELISA), week 11 after re-challenge: 1884±761
anti-GAA total titers; sequential: 5 mg OPLS then 1 μg rhGAA 5 min later, same site
  Total titers (ELISA), week 6: 926±202
[1]
  Anti-Humira antibody titers vs Humira alone: lower
anti-RXT antibody titers
  Anti-RXT antibody titers vs RXT alone: lower
[2]
  Impact on renal and hepatic function (plasma chemistry markers): no impact
[3]
  Plasma creatine kinase activity vs vehicle: No statistical significance
[3]; macroscopic evaluation
  Injection site pathology at necropsy: No visible injection site pathology

From patent publication US20220016241A1, “COMPOSITIONS AND METHODS FOR REDUCING ANTIGEN-SPECIFIC IMMUNOGENICITY” (The Research Foundation for The State University of New York, priority 2013, published 2022)
